Marks after values point to notes of the source that are not given here.
Columns and labels:
[1] = test system: Candid albicans ATCC 60193; assay: disk diffusion assay, inhibition zone; format: cell-based; details: Candida albicans, ATCC60193; C. albicans; 30 μg/disk; read-out: Inhibition zone diameter of standard antimicrobial agents
Description: (§1) To evaluate antimicrobial activity of the compound 4, synthesized in our laboratory as novel anti-bacterial and anti-fungal agents, the inhibition zone diameter (mm) and the minimal inhibitory concentration were determined according to (Andrews 2001; Hudzicki 2009). The test carried out on several clinical microorganisms included Gram positive bacteria (Staphylococcus aureus ATCC and Streptococcus mutans ATCC 35668), Gram negative bacteria (Escherichia coli ATCC 25922, Salmonella typhimurium ATCC 14028 and Neisseria meningitides ATCC 1302); yeasts (Candid albicans ATCC 60193, Cryptococcus neoformans Wild strain and Candida parapsilosus ATCC 22019) and molds (Aspergillus fumigatus AUMC 8794, Penicillum chrysogenum AUMC 9476 and Fusarium sp.)
(§2) The clinical microorganisms were cultivated at least three times on suitable culture medium and incubating conditions before susceptibility test. The concentration of microbial inoculation suspensions in sterile sodium chloride solution (0.89%) were adjusted to 0.65 at 620 nm by spectrophotometer. […]
(§3) After that, the disks were dried at 25° C. under sterile conditions by safety biological cabinet. A Mueller-Hinton agar (MHA) (Scharlau Microbiogy, Spain) and a potato dextrose agar (PDA) (Scharlau, Spain) were used to perform antibacterial and antifungal test respectively. The media were prepared according to manufacturer's guidelines. To prepare one liter of MHA and one liter of PDA, 21 grams of MHA and 39 grams of PDA were dissolved in one liter of sterile distilled water, followed by sterilization at 121° C. for 15 minutes by an autoclave (HL-321, Taiwan). The sterilized media were poured in sterile plastic Petri dishes at 50° C. The plates were allowed to let the medium solidify at room temperature. 0.1 ml of microbial inoculation suspensions were spread on dried surface of medium and were kept at 25° C. for 5-10 minutes. The compound 4 and standard antimicrobial drugs discs (Table 1) were dispensed on the surface of inoculated media. The tested bacteria and fungi were incubated at 37±1° C. for 19-22 hours and at 25±1 for 48-72 hours respectively. After the incubation, the diameter of inhibition zone (millimeter) resulting from the biological activity of compound were recorded.

[2] = test system: Aspergillus fumigatus AUMC 8794; assay: disk diffusion assay, inhibition zone; format: cell-based; details: Aspergillus fumigatus, AUMC8794; A. fumigatus; 30 μg/disk; read-out: Inhibition zone diameter of standard antimicrobial agents
Description: as §1, §2, §3

[3] = test system: Penicillum chrysogenum AUMC 9476; assay: disk diffusion assay, inhibition zone; format: cell-based; details: read-out: Inhibition zone diameter of standard antimicrobial agents
Description: as §1, §2, §3

[4] = test system: Candida parapsilosus ATCC 22019; assay: disk diffusion assay, inhibition zone; format: cell-based
Description: as §1, §2, §3

[5] = test system: Cryptococcus neoformans Wild strain; assay: disk diffusion assay, inhibition zone; format: cell-based; details: Cryptococcus neoformans, read-out: Inhibition zone diameter of standard antimicrobial agents
Description: as §1, §2, §3

Fusarium sp. = assay: disk diffusion assay, inhibition zone; format: cell-based; details: Fusarium, read-out: Inhibition zone diameter of standard antimicrobial agents
Description: as §1, §2, §3

C. albicans = assay: in vivo antifungal activity, candidemia in mice infected with C. albicans; parameters: species or system Albino male mice; details: C. albicans-infected mice; for daily body weight / % change in daily body weight / Food consumption / Mortality / Water consumption: oral 12 mg/kg then 6 mg/ml
Description: To confirm that the water soluble form of the compound 4 has a biological activity as a novel antimicrobial agent, effectiveness of the compound 4 as a drug to treat candidemia in mice was investigated. The experiment was performed in Experimental Animal Care Center (EACC), College of Pharmacy, King Saud University, Riyadh. Fifty Albino male mice, weighing nearly 30±2 gram were used. The mice were arranged in five groups, each including ten mice caged together, given water, and feed ad libitum. Negative control and control group were infected intravenously with 0.2 ml of C. albicans suspension (10^6 CFU/mouse) and 0.2 ml of sterile normal saline (0.89% Nacl) respectively. The group treated with standard drug (fluconazole) was infected intravenously with 0.2 ml of C. albicans suspension (10^6 CFU/mouse) and treated (orally) by 12 mg/kg of fluconazole (loading dose) on the first day followed by 6 mg/ml for 2 weeks. The group treated with the investigated compound 4 was infected intravenously with C. albicans at 10^6 CFU/mouse (0.2 ml) and treated (orally) by 12 mg/kg of the compound 4 (loading dose) on the first day followed by 6 mg/ml for 2 weeks. To study the biological effects of compound 4, a fifth group was designed. In this group the mice were treated intravenously (I. V) with 12 mg/kg of the compound 4 on the first day followed by 6 mg/ml for 2 weeks. All doses of the standard drug and compound 4 were given twice daily.
The effectiveness of the previous treatments on some biological concepts were evaluated. The biological parameters included daily body weight (gm), mortality (%), food consumption (g/day/mouse), water consumption (ml/day/mouse), serum glutamic oxaloacetic transaminase [SGOT(AST) (U/L)], serum glutamic-pyruvic transaminase [SGPT(ALT)(U/L)], alkaline phosphatase (U/L), gamma-glutamyl transferase (GGT) (U/L), bilirubin (mg/dl)], cholesterol (mg/dl), triglycerides (mg/dl), high-density lipoprotein (HDL) (mg/dl), very-low-density lipoprotein (VLDL) (mg/dl), low-density lipoprotein (LDL) (mg/dl), lactate dehydrogenase (LDH) (U/L), glucose (mg/dl), total protein (mg/dl), malondialdehyde (MDA) (nmol/g), nonprotein sulfyhydryl (NP-SH) (nmol/g). Addition hematologic constituents including white blood cells (WBC) (cell/mm^3), red blood cells (RBC) (10^6/mm^3), hemoglobin (HGB) (g/dL), HCT, Platelets (PLT) (10^3/mm^3), mean corpuscular volume (MCV) (fL), mean corpuscular hemoglobin (MCH) (pg), mean corpuscular hemoglobin concentration (MCHC) (g/dL), neutrophils (%), lymphocytes (%), eosinophils (%) and monocytes (%)] were evaluated (Classics Lowry et al. 1951; Utley et al. 1967; Sedlak et al. 1968). SGOT (AST), SGPT (ALT), ALP, GGT, bilirubin LDH and total protein were estimated using Reflotron Plus Analyzer and Roche kits (Roche Diagnostics GmbH, Mannheim Germany) and United diagnostic kits assay. Hematological tests were performed by Mindray BC-2800VET auto Hematology Analyzer.

[6] = blood, oral 12 mg/kg then 6 mg/ml for 2 weeks
[7] = liver tissue, oral 12 mg/kg then 6 mg/ml for 2 weeks
[8] = serum, oral 12 mg/kg then 6 mg/ml for 2 weeks

C[C@@H]1C[C@@H]([C@H](O)CC2CC(=O)NC(=O)C2)C(=O)[C@@H](C)C1 [Cycloheximide]
zone of inhibition at 30 µg/disc [1]: 0 mm | zone of inhibition at 30 µg/disc [2]: 22 mm | zone of inhibition at 30 µg/disc [3]: 23 mm | susceptibility of the strain to the standard drug, in words ([4]; C. parasilosus): resistant | zone of inhibition at 30 µg/disc ([4]; Candida, ATCC22019, read-out: Inhibition zone diameter of standard antimicrobial agents): 0 mm | zone of inhibition at 30 µg/disc [5]: 32 mm | zone of inhibition at 30 µg/disc (Fusarium sp.): 30 mm

OC(Cn1cncn1)(Cn1cncn1)c1ccc(F)cc1F [fluconazole, reference compound]
daily body weight (C. albicans; day 0): 19.70 ± 0.47 gm | % change in daily body weight (C. albicans; day 1): 0.50% | Food consumption (C. albicans; day 1): 4.3 g/day/mice | Mortality (C. albicans; day 1): 0% | Water consumption (C. albicans; day 1): 4.8 g/day/mice | daily body weight (C. albicans; day 1): 19.80 ± 0.35 gm | % change in daily body weight (C. albicans; day 2): 10.65% | Food consumption (C. albicans; day 2): 4.3 g/day/mice | Mortality (C. albicans; day 2): 0% | Water consumption (C. albicans; day 2): 4.8 g/day/mice | daily body weight (C. albicans; day 2): 21.80 ± 0.24 gm | % change in daily body weight (C. albicans; day 3): 13.19% | Food consumption (C. albicans; day 3): 4.5 g/day/mice | Mortality (C. albicans; day 3): 0% | Water consumption (C. albicans; day 3): 4.9 g/day/mice | daily body weight (C. albicans; day 3): 22.30 ± 0.21 gm | % change in daily body weight (C. albicans; day 4): 13.70% | Food consumption (C. albicans; day 4): 4.6 g/day/mice | Mortality (C. albicans; day 4): 0% | Water consumption (C. albicans; day 4): 5.0 g/day/mice | daily body weight (C. albicans; day 4): 22.40 ± 0.22 gm | % change in daily body weight (C. albicans; day 5): 21.31% | Food consumption (C. albicans; day 5): 4.6 g/day/mice | Mortality (C. albicans; day 5): 0% | Water consumption (C. albicans; day 5): 5.2 g/day/mice | daily body weight (C. albicans; day 5): 23.90 ± 0.31 gm | % change in daily body weight (C. albicans; day 6): 21.82% | Food consumption (C. albicans; day 6): 4.7 g/day/mice | Mortality (C. albicans; day 6): 0% | Water consumption (C. albicans; day 6): 5.2 g/day/mice | daily body weight (C. albicans; day 6): 24.00 ± 0.29 gm | % change in daily body weight (C. albicans; day 7): 22.95% | Food consumption (C. albicans; day 7): 5.0 g/day/mice | Mortality (C. albicans; day 7): 10% | Water consumption (C. albicans; day 7): 5.1 g/day/mice | daily body weight (C. albicans; day 7): 24.22 ± 0.22 gm | % change in daily body weight (C. albicans; day 8): 24.08% | Food consumption (C. albicans; day 8): 5.1 g/day/mice | Mortality (C. albicans; day 8): 10% | Water consumption (C. albicans; day 8): 5.2 g/day/mice | daily body weight (C. albicans; day 8): 24.44 ± 0.24 gm | % change in daily body weight (C. albicans; day 9): 24.36% | Food consumption (C. albicans; day 9): 4.7 g/day/mice | Mortality (C. albicans; day 9): 20% | Water consumption (C. albicans; day 9): 5.2 g/day/mice | daily body weight (C. albicans; day 9): 24.50 ± 0.18 gm | % change in daily body weight (C. albicans; day 10): 26.29% | Food consumption (C. albicans; day 10): 5.00 g/day/mice | Mortality (C. albicans; day 10): 20% | Water consumption (C. albicans; day 10): 5.3 g/day/mice | daily body weight (C. albicans; day 10): 24.87 ± 0.29 gm | % change in daily body weight (C. albicans; day 11): 28.17% | Food consumption (C. albicans; day 11): 5.1 g/day/mice | Mortality (C. albicans; day 11): 20% | Water consumption (C. albicans; day 11): 5.3 g/day/mice | daily body weight (C. albicans; day 11): 25.25 ± 0.25 gm | % change in daily body weight (C. albicans; day 12): −28.80% | Food consumption (C. albicans; day 12): 5.62 g/day/mice | Mortality (C. albicans; day 12): 20% | Water consumption (C. albicans; day 12): 5.5 g/day/mice | daily body weight (C. albicans; day 12): 25.37 ± 0.26 gm | % change in daily body weight (C. albicans; day 13): 31.97% | Food consumption (C. albicans; day 13): 5.2 g/day/mice | Mortality (C. albicans; day 13): 30% | Water consumption (C. albicans; day 13): 5.4 g/day/mice | daily body weight (C. albicans; day 13): 26.00 ± 0.30 gm | % change in daily body weight (C. albicans; day 14): 33.43% | Food consumption (C. albicans; day 14): 5.2 g/day/mice | Mortality (C. albicans; day 14): 30% | Water consumption (C. albicans; day 14): 5.4 g/day/mice | daily body weight (C. albicans; day 14): 26.28 ± 0.28 gm | % change in daily body weight (C. albicans; day 15): 35.60% | Food consumption (C. albicans; day 15): 5.5 g/day/mice | Mortality (C. albicans; day 15): 30% | Water consumption (C. albicans; day 15): 5.7 g/day/mice | daily body weight (C. albicans; day 15): 26.71 ± 0.28 gm | Eosinophils Mean ± SE (C. albicans; [6]): 1.61 ± 0.10% | HCT Mean ± SE (C. albicans; [6]): 35.05 ± 1.5 | HGB Mean ± SE (C. albicans; [6]): 11.1 ± 0.18 g/dL | Lymphocytes Mean ± SE (C. albicans; [6]): 6.2 ± 0.1% | MCH Mean ± SE (C. albicans; [6]): 28.2 ± 0.7 pg | MCHC Mean ± SE (C. albicans; [6]): 24.3 ± 0.5 g/dL | MCV Mean ± SE (C. albicans; [6]): 72.04 ± 2.6 fL | Monocytes Mean ± SE (C. albicans; [6]): 1.06 ± 0.02% | Neutrophils Mean ± SE (C. albicans; [6]): 25.9 ± 0.5% | PLT Mean ± SE (C. albicans; [6]): 563.8 ± 17.4 10^3/mm^3 | RBC Mean ± SE (C. albicans; [6]): 7.50 ± 0.23 10^6/mm^3 | WBC Mean ± SE (C. albicans; [6]): 8233.2 ± 83.7 Cell/mm^3 | MDA (C. albicans; [7]): 2.33 ± 0.07***^b nmol/g | NP-SH (C. albicans; [7]): 4.21 ± 0.18***^b nmol/g | Total Protein (C. albicans; [7]): 92.72 ± 1.54***^b g/l | Alkaline phosphatase Mean ± SE (C. albicans; [8]): 321.28 ± 6.91 U/L | Bilirubin Mean ± SE (C. albicans; [8]): 0.75 ± 0.03 mg/dL | Cholesterol Mean ± SE (C. albicans; [8]): 134.8 ± 3.6 mg/dL | GGT Mean ± SE (C. albicans; [8]): 5.60 ± 0.17 U/L | Glucose level Mean ± SE (C. albicans; [8]): 143.85 ± 2.47***^b mg/dl | HDL Mean ± SE (C. albicans; [8]): 29.8 ± 0.9 mg/dL | LDH Mean ± SE (C. albicans; [8]): 184.92 ± 5.08***^b U/L | LDL Mean ± SE (C. albicans; [8]): 83.9 ± 3.3 mg/dL | SGOT(AST) Mean ± SE (C. albicans; [8]): 143.28 ± 2.88 U/L | SGPT(ALT) Mean ± SE (C. albicans; [8]): 50.48 ± 3.17 U/L | Triglycerides Mean ± SE (C. albicans; [8]): 105.1 ± 2.2 mg/dL | VLDL Mean ± SE (C. albicans; [8]): 21.0 ± 0.4 mg/dL

— patent US9988348B1, “Synthesis and antimicrobial use of a trithiocarbonate derivative” (KING SAUD UNIVERSITY, priority 2017, dated 2018)
